Reference: patent US20170027172A1, “USE OF SUBSTITUTE OXO TETRAHYDROQUINOLINE SULFONAMIDES OR SALTS THEREOF FOR RAISING STRESS TOLERANCE OF PLANTS” (BAYER CROPSCIENCE AKTIENGESELLSCHAFT, priority 2014, published 2017)

Columns and labels:
Triticum aestivum [1] = assay: Drought stress greenhouse test Part C, visual scoring vs stressed control plants; type: in vivo; settings: efficacy range of 3-4 pots
Experimental: Seeds of monocotyledonous and dicotyledonous crop plants were sown in sandy loam in plastic or wood-fiber pots, covered with soil or sand and cultivated in a greenhouse under good growth conditions. The trial plants were treated at the early leaf stage (BBCH10-BBCH13). To assure uniform water supply before commencement of stress, the potted plants were supplied with water by dam irrigation prior to substance application. The inventive compounds were first formulated as wettable powders (WP) or dissolved in a solvent mixture. The further dilution was effected with water supplemented with 0.2% wetting agent (e.g. agrotin). The finished spray liquor was sprayed onto the green parts of the plant at an equivalent water application rate of 600 l/ha. Substance application was followed immediately by stress treatment of the plants. For this purpose, the wood-fiber pots were transferred in plastic inserts in order to prevent them from subsequently drying out too quickly. Drought stress was induced by gradual drying out under the following conditions: “Day”: 14 hours with illumination at 26-30° C. “Night”: 10 hours without illumination at 18-20° C. The duration of the respective stress phases was guided mainly by the condition of the stressed control plants. It was ended (by re-irrigating and transfer to a greenhouse with good growth conditions) as soon as irreversible damage was observed on the stressed control plants. The end of the stress phase was followed by an about 4-7-day recovery phase, during which the plants were once again kept under good growth conditions in a greenhouse. The duration of the recovery phase was guided mainly by when the trial plants had attained a state which enabled visual scoring of potential effects, and was therefore variable. Once this juncture had been reached, the appearance of the plants treated with test substances was recorded in comparison to the stressed control plants by the following categories: [table] For each substance and dosage, 3-4 pots were treated and evaluated. […] BRSNS=Brassica napus TRZAS=Triticum aestivum

[2] = target: T1, phosphatase ABI1 via the co-regulator RCAR11/PYR1 (Arabidopsis thaliana, UniProt O49686+P49597); assay: In vitro inhibition of the phosphatase ABI1 via the co-regulator RCAR11/PYR1, MUP dephosphorylation; type: biochemical; set-up: dose or concentration left out as unconfirmed; settings: in a solution of DMSO and water; fluorescence at 460 nm
T1 sequence (O49686 1-191): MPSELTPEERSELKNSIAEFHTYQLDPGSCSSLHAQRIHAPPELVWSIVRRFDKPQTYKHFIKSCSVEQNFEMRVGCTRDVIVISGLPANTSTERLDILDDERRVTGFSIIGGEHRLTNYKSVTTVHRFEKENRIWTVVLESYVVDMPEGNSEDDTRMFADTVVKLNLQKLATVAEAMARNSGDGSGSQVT
T1 sequence (P49597 1-434): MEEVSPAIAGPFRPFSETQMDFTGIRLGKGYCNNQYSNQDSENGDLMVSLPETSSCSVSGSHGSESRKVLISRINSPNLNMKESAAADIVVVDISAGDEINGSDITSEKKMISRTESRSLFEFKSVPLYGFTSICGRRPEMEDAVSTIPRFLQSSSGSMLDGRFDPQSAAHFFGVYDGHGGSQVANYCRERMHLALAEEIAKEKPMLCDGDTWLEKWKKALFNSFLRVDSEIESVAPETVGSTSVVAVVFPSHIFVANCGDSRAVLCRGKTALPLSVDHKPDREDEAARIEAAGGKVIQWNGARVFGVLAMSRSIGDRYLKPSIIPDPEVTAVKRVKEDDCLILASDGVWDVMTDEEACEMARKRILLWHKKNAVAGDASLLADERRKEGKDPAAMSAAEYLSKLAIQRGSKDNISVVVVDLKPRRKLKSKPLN
Procedure, shortened: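 Arabidopsis ABI1 (0.15 μg/well) with RCAR11/PYR1 (0.30 μg/well) in Tris-HCl pH 8, NaCl, MnCl2, DTT, Tween20; MUP substrate, 20 min at 35 °C, fluorescence ex 340/em 460 nm. Compounds tested at 5 mM in DMSO/water, optionally pre-treated with porcine liver esterase; inhibition banded ≥90/70/50/30%.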

Triticum aestivum [3] = assay: Drought stress test on wheat Part D, reduction in damage intensity from fresh weights; type: in vivo; settings: efficacy = reduction in damage intensity (fresh weight) under drought stress, 250 g/ha, at least three repeats
From the text: Wheat grains were sown in a standardized number in sandy loam soil plastic pots, covered with soil or sand and grown in a greenhouse under good growth conditions. Pots with uneven degrees of emergence were excluded prior to the start of the trial. The treatment with test substances was effected at the early leaf stage (BBCH10-BBCH13). To assure uniform water supply, the potted plants were supplied with water by dam irrigation prior to substance application. The inventive compounds were first formulated as wettable powders (WP) or dissolved in a solvent mixture. The further dilution was effected with water supplemented with 0.2% wetting agent (e.g. agrotin). The finished spray liquor was sprayed onto the green parts of the plant at an equivalent water application rate of 600 l/ha. Substance application was followed immediately by stress treatment of the plants. Drought stress was induced by gradual drying out under the following conditions: “Day”: 14 hours with illumination at 26-30° C. “Night”: 10 hours without illumination at 18-20° C. The duration of the respective stress phases was guided mainly by the condition of the stressed control plants. It was ended (by re-irrigating and transfer to a greenhouse with good growth conditions) as soon as irreversible damage was observed on the stressed control plants. The end of the stress phase was followed by an about 7-day recovery phase, during which the plants were once again kept under good growth conditions in a greenhouse. The exact duration of the recovery phase was variable for reasons related to the trial. At the end of the recovery phase, the fresh weights of the plant parts above ground were determined. By comparison with unstressed control plants which were kept under good growth conditions over the entire duration of the trial, percentage damage intensities were first calculated from the fresh weight values. The reduction in damage intensity resulting from treatment with test substance was then calculated by the following formula: [formula] EF: Efficacy DIs: Damage intensity of the stressed control plants DIt: Damage intensity of the stressed plants treated with test compound The values reported in table D-1 below are results from at least three repeats. BRSNS=Brassica napus TRZAS=Triticum aestivum

Triticum aestivum [4] = assay: Drought stress greenhouse test Part A, visual scoring vs stressed control plants; type: in vivo; set-up: key: 0: no effect; 10: slight positive effect; 20: clear positive effect; 30: strong positive effect; settings: average score of 3 pots
Experimental: (§1) Seeds of monocotyledonous and dicotyledonous crop plants were sown in sandy loam in plastic pots, covered with soil or sand and cultivated in a greenhouse under good growth conditions. The trial plants were treated at the early leaf stage (BBCH10-BBCH13). To assure uniform water supply before commencement of stress, the potted plants were supplied with water by dam irrigation prior to substance application.
(§2) The inventive compounds formulated in the form of wettable powders (WP) were sprayed onto the green parts of the plants as an aqueous suspension at an equivalent water application rate of 600 l/ha with addition of 0.2% wetting agent (e.g. agrotin). Substance application was followed immediately by stress treatment of the plants.
(§3) Drought stress was induced by gradual drying out under the following conditions:
“Day”: 14 hours with illumination at ˜26-30° C. “Night”: 10 hours without illumination at ˜18-20° C.
(§4) The duration of the respective stress phases was guided mainly by the condition of the stressed control plants. It was ended (by re-irrigating and transfer to a greenhouse with good growth conditions) as soon as irreversible damage was observed on the stressed control plants.
(§5) The end of the stress phase was followed by an about 4-7-day recovery phase, during which the plants were once again kept under good growth conditions in a greenhouse. The duration of the recovery phase was guided mainly by when the trial plants had attained a state which enabled visual scoring of potential effects, and was therefore variable.
(§6) Once this juncture had been reached, the appearance of the plants treated with test substances was recorded in comparison to the stressed control plants by the following categories:
In order to rule out any influence on the effects observed by any fungicidal or insecticidal action of the test compounds, it was additionally ensured that the tests proceeded without fungal infection or insect infestation.
In each test, for each crop and dosage, plants in 3 pots were treated and evaluated separately. The values reported in Tables A-1 to A-2 below for the effects obtained are averages from the scores obtained.
(§7) BRSNS=Brassica napus TRZAS=Triticum aestivum

Triticum aestivum [5] = assay: Drought stress greenhouse test Part B, visual scoring vs stressed control plants; type: in vivo; settings: spray application 250 g/ha, efficacy range of 2-3 pots
Experimental: as §1, §2, §3
“Day”: 14 hours with illumination at 26-30° C. “Night”: 10 hours without illumination at 18-20° C.
as §4
as §5, with “and is” for “and was”
as §6
For each substance and dosage, 2-3 pots were treated and evaluated.
as §7

Structure (SMILES) | ABI1 inhibition [2] | Effect (TRZAS) (Triticum aestivum [1]; spray application 250 g/ha) | further results
Cc1ccc(CS(=O)(=O)Nc2ccc3c(c2)CCC(=O)N3CCSC(F)(F)F)cc1 [A42-152] | +++ (90%>inhibition≧70%) | – | Effect (TRZAS) (Triticum aestivum [1]; spray application 25 g/ha): 10-20
CCC1(C)CC(=O)N(CC2CC2)c2ccc(NS(=O)(=O)Cc3ccc(F)cc3)cc21 (centres unmarked) [F3-158] | – | – | Effect (TRZAS) (Triticum aestivum [1]; spray application 25 g/ha): 10-20
O=C1CCc2cc(NS(=O)(=O)Cc3ccc(C(F)(F)F)cc3)ccc2N1CC12CC3CC(CC(C3)C1)C2 [A46-178] | – | – | Effect (TRZAS) (Triticum aestivum [1]; spray application 25 g/ha): 20-30
COC(=O)CCN1C(=O)CC(C)(C)c2cc(NS(=O)(=O)Cc3ccc(Br)cc3)ccc21 [B51-172] | – | – | Effect (TRZAS) (Triticum aestivum [1]; spray application 25 g/ha): 10-20
CCC1(C)CC(=O)N(CCOC)c2ccc(NS(=O)(=O)Cc3ccccc3)cc21 (centres unmarked) [F7-151] | – | – | Effect (TRZAS) (Triticum aestivum [1]; spray application 25 g/ha): 10-20
CCOC(=O)CCN1C(=O)CC(C)(C)c2cc(NS(=O)(=O)Cc3ccc(C#N)cc3)ccc21 [B52-181] | – | 10-20 | EF [%] (TRZAS) (Triticum aestivum [3]): 14%
COCCN1C(=O)CCc2cc(NS(=O)(=O)Cc3ccc(Cl)cc3)ccc21 [A38-165] | ++++ (inhibition≧90%) | 10-30 | –
COC(=O)CN1C(=O)CCc2cc(NS(=O)(=O)Cc3cccc(C#N)c3)ccc21 [A50-182] | – | 10-20 | –
CC1(C)CC(=O)N(CC(F)(F)F)c2ccc(NS(=O)(=O)CCc3ccc(Cl)cc3)cc21 [B2-291] | – | – | Effect (TRZAS) (Triticum aestivum [4]; spray application 25 g/ha): 20; Effect (TRZAS) (Triticum aestivum [4]; spray application 250 g/ha): 30
COCCN1C(=O)CC2(CCCCC2)c2cc(NS(=O)(=O)Cc3ccc(C(F)(F)F)cc3)ccc21 [I5-178] | – | 10-30 | –
COC(=O)CN1C(=O)CCc2cc(NS(=O)(=O)Cc3ccc([N+](=O)[O-])cc3)ccc21 [A50-175] | +++ (90%>inhibition≧70%) | – | Effect (TRZAS) (Triticum aestivum [1]; spray application 25 g/ha): 10-20
Cc1ccc(CS(=O)(=O)Nc2ccc3c(c2)CCC(=O)N3CC2CC2)cc1F [A19-357, N-[1-(Cyclopropylmethyl)-2-oxo-1,2,3,4-tetrahydroquinolin-6-yl]-1-(3-fluoro-4-methylphenyl)methanesulfonamide] | ++++ (inhibition≧90%) | – | Effect (TRZAS) (Triticum aestivum [5]): 10-20
CCC1(C)CC(=O)N(CCOC)c2ccc(NS(=O)(=O)Cc3ccc(F)cc3)cc21 (centres unmarked) [F7-158] | – | 10-20 | –
CC1(C)CC(=O)N(CC(F)(F)F)c2ccc(NS(=O)(=O)Cc3ccc(Cl)cc3)cc21 [B2-165] | – | – | Effect (TRZAS) (Triticum aestivum [4]; spray application 25 g/ha): 20
N#Cc1cccc(CS(=O)(=O)Nc2ccc3c(c2)CCC(=O)N3CC2CC2)c1 [A19-182] | ++ (70%>inhibition≧50%) | – | Effect (TRZAS) (Triticum aestivum [4]; spray application 25 g/ha): 20; Effect (TRZAS) (Triticum aestivum [4]; spray application 250 g/ha): 20-30
N#Cc1ccc(CS(=O)(=O)Nc2ccc3c(c2)CCC(=O)N3CC2CC2)cc1 [A19-181] | ++++ (inhibition≧90%) | – | Effect (TRZAS) (Triticum aestivum [5]): 10-20
COC(=O)CN1C(=O)CCc2cc(NS(=O)(=O)Cc3ccc(C)cc3)ccc21 [A50-152] | ++++ (inhibition≧90%) | 10-20 | –
CCC1(C)CC(=O)N(CC2CC2)c2ccc(NS(=O)(=O)Cc3cccc(Cl)c3)cc21 (centres unmarked) [F3-166] | – | 10-20 | –
COC(=O)CN1C(=O)CCc2cc(NS(=O)(=O)Cc3cccc(Br)c3)ccc21 [A50-173] | – | – | Effect (TRZAS) (Triticum aestivum [1]; spray application 25 g/ha): 10-20
CCC1(C)CC(=O)N(CCOC)c2ccc(NS(=O)(=O)Cc3cccc(Cl)c3)cc21 (centres unmarked) [F7-166] | – | 10-20 | –
CC1(C)CC(=O)N(CC(F)(F)F)c2ccc(NS(=O)(=O)c3ccc(C#N)cc3)cc21 [B2-45] | – | – | Effect (TRZAS) (Triticum aestivum [4]; spray application 25 g/ha): 20
CCC1(C)CC(=O)N(CCOC)c2ccc(NS(=O)(=O)Cc3ccc(Cl)cc3)cc21 (racemic) [F7-165] | – | – | Effect (TRZAS) (Triticum aestivum [1]; spray application 25 g/ha): 10-20
COC(=O)CCN1C(=O)CCc2cc(NS(=O)(=O)Cc3ccc(Br)cc3)ccc21 [A51-172] | ++++ (inhibition≧90%) | 10-20 | –
O=C1CCc2cc(NS(=O)(=O)Cc3ccc(F)cc3)ccc2N1CC(F)F [A1-158] | +++ (90%>inhibition≧70%) | – | Effect (TRZAS) (Triticum aestivum [5]): 10-20
COC(=O)CCN1C(=O)CC(C)(C)c2cc(NS(=O)(=O)Cc3ccc(C)cc3)ccc21 [B51-152] | – | 10-20 | EF [%] (TRZAS) (Triticum aestivum [3]): 16%
Cc1ccc(CS(=O)(=O)Nc2ccc3c(c2)CCC(=O)N3CC2CC2)cc1 [A19-152] | ++++ (inhibition≧90%) | – | Effect (TRZAS) (Triticum aestivum [4]; spray application 25 g/ha): 20
COC(=O)CN1C(=O)CC(C)(C)c2cc(NS(=O)(=O)Cc3ccc(Cl)cc3)ccc21 [B50-165] | – | 10-20 | –
